Source: PubChem BioAssay (NCI)
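A five-concentration, 48-hour dose response in 96-well plates underlies each endpoint, interpolated linearly between surrounding concentrations. TGI is the concentration that stops growth completely.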

How the values were obtained:
Test in all cases: DTP human tumour cell line panel, 48 h
[1] = system: SK-MEL-28 melanoma
[2] = system: NCI-H226 lung
[3] = system: U251 CNS
[4] = system: OVCAR-8 ovarian
[5] = system: MDA-N
[6] = system: BT-549 breast
[7] = system: UO-31 renal
[8] = system: NCI-H522 lung
[9] = system: IGROV1 ovarian
[10] = system: HS 578T breast
[11] = system: T-47D breast
[12] = system: RPMI-8226 leukemia
[13] = system: 786-0 renal
[14] = system: M14 melanoma
[15] = system: MOLT-4 leukemia
[16] = system: HOP-92 NSCLC
[17] = system: MALME-3M melanoma
[18] = system: SNB-75 CNS
[19] = system: SR leukemia
[20] = system: HCC-2998 colon
[21] = system: HL-60(TB) leukemia
[22] = system: HT29 colon
[23] = system: OVCAR-3 ovarian
[24] = system: SK-OV-3 ovarian
[25] = system: MDA-MB-231 breast
[26] = system: CCRF-CEM leukemia
[27] = system: K-562 leukemia
[28] = system: OVCAR-4 ovarian
[29] = system: SF-539 CNS
[30] = system: HOP-62 NSCLC
[31] = system: SK-MEL-2 melanoma
[32] = system: COLO 205 colon
[33] = system: HCT-116 colon
[34] = system: SN12C renal
[35] = system: HCT-15 colon
[36] = system: NCI/ADR-RES ovarian
[37] = system: ACHN renal
[38] = system: MCF7 breast
[39] = system: EKVX NSCLC
[40] = system: A549 NSCLC
[41] = system: SNB-19 CNS
[42] = system: SF-295 CNS
[43] = system: MDA-MB-435
[44] = system: LOX IMVI melanoma
[45] = system: SW-620 colon
[46] = system: NCI-H23 lung
[47] = system: KM12 colon
[48] = system: DU-145 prostate
[49] = system: RXF 393 renal
[50] = system: NCI-H460 lung
[51] = system: PC-3 prostate
[52] = system: UACC-62 melanoma
[53] = system: SK-MEL-5 melanoma
[54] = system: SF-268 CNS
[55] = system: CAKI-1 renal
[56] = system: A498 renal
[57] = system: UACC-257 melanoma
[58] = system: TK-10 renal
[59] = system: OVCAR-5 ovarian
[60] = system: KM20L2 colon
[61] = system: DLD-1 colon
[62] = system: LXFL 529 NSCLC
[63] = system: DMS 114 small cell lung
[64] = system: DMS 273 small cell lung
[65] = system: SNB-78 CNS
[66] = system: M19-MEL melanoma

Measured: TGI

CC(=O)C1=C(C)N(c2ccccc2)C2(O)C3=C(C(=O)c4ccccc4C3=O)C(O)=CC12Cl (centres undefined)
27.2 µM: [55]
9.04 µM: [53]
46.5 µM: [51]
> 100 µM: [4] | [11] | [13] | [14] | [15] | [23] | [24] | [25] | [27] | [32] | [33] | [35] | [36] | [39] | [40] | [44] | [45] | [48] | [50] | [59]
30 µM: [16]
4.39 µM: [12]
62.5 µM: [26]
14.5 µM: [28]
55.7 µM: [2]
15.6 µM: [29]
50.1 µM: [3]
26.7 µM: [7]
39.9 µM: [38] | [46]
25.6 µM: [49]
16.2 µM: [18]
6.88 µM: [5]
49 µM: [21]
5.81 µM: [8]
30.3 µM: [6]
19.3 µM: [57]
25.9 µM: [20]
73.9 µM: [52]
4.91 µM: [17]
12.3 µM: [19]
24.6 µM: [47]
22.2 µM: [31]
8.25 µM: [9]
30.5 µM: [56]
23.5 µM: [41]
15.2 µM: [10]
33.1 µM: [58]
8.45 µM: [22]
33.2 µM: [37]
24 µM: [34]
60.6 µM: [54]
23.6 µM: [1]
80.1 µM: [30]
40.6 µM: [42]
6.28 µM: [43]

C=C1C(=O)OC2CC1C(OC(=O)/C=C/c1ccccc1)C/C(C)=C/CC/C(C)=C/CCC2(C)O (centres undefined)
6.99 µM: [4]
1.96 µM: [38]
4.51 µM: [52]
2.87 µM: [18] | [23]
3.51 µM: [41]
2.38 µM: [33]
3.04 µM: [34]
3.57 µM: [2]
15.6 µM: [1]
> 19.9 µM: [32]
2.96 µM: [28]
3.68 µM: [53] | [56]
3.07 µM: [9]
3.76 µM: [43]
2.85 µM: [31]
2.72 µM: [49]
2.61 µM: [44]
18.4 µM: [11]
9.4 µM: [36]
2.67 µM: [5] | [35]
2.78 µM: [55]
2.31 µM: [13]
5.46 µM: [24]
2.77 µM: [48]
3.08 µM: [37]
4.02 µM: [17]
2.83 µM: [29]
5.39 µM: [25]
3.66 µM: [39]
3.81 µM: [54]
2.74 µM: [50]
> 100 µM: [27]
> 39.8 µM: [15]
4.03 µM: [16]
1.63 µM: [8]
3.79 µM: [57]
3.12 µM: [20]
3 µM: [7]
3.41 µM: [47]
> 21.6 µM: [19]
5.94 µM: [10]
3.22 µM: [51]
3.14 µM: [14]
3.19 µM: [40] | [59]
3.23 µM: [30]
2.99 µM: [22]
3.17 µM: [58]
3.01 µM: [42]
4.28 µM: [3]
2.8 µM: [6]
4.91 µM: [46]

O=C(CC1(O)C(=O)Nc2ccccc21)c1ccc(Cl)c(Cl)c1 (centres undefined)
> 100 µM: [60] | [1] | [2] | [3] | [7] | [8] | [61] | [62] | [9] | [12] | [13] | [14] | [15] | [16] | [18] | [19] | [20] | [21] | [22] | [24] | [26] | [27] | [63] | [28] | [64] | [29] | [31] | [32] | [65] | [33] | [34] | [35] | [37] | [39] | [40] | [41] | [42] | [44] | [45] | [46] | [49] | [50] | [52] | [53] | [54] | [66] | [55] | [56] | [59]

NCC(=O)Nc1ccc(Cl)cc1C(=O)c1ccc[nH]1
> 94.9 µM: [28]
> 100 µM: [1] | [2] | [3] | [4] | [5] | [6] | [7] | [9] | [10] | [11] | [12] | [13] | [14] | [15] | [17] | [18] | [19] | [20] | [21] | [22] | [23] | [24] | [25] | [27] | [29] | [30] | [31] | [32] | [33] | [34] | [35] | [36] | [37] | [38] | [39] | [40] | [41] | [42] | [43] | [44] | [45] | [46] | [47] | [48] | [49] | [50] | [51] | [52] | [53] | [54] | [55] | [56] | [57] | [58] | [59]
50.1 µM: [8]
22.5 µM: [26]
> 76.5 µM: [16]

CCCC(=O)OCC1OC(n2cc(F)c(=O)[nH]c2=O)CC1OC(=O)CCC (centres undefined)
5.02 µM: [46]
> 9.23 µM: [56]
> 10 µM: [1] | [2] | [3] | [4] | [5] | [6] | [7] | [8] | [9] | [10] | [11] | [12] | [13] | [14] | [15] | [16] | [17] | [19] | [20] | [21] | [22] | [23] | [24] | [25] | [26] | [27] | [28] | [30] | [31] | [32] | [33] | [34] | [35] | [36] | [37] | [38] | [39] | [40] | [41] | [42] | [43] | [44] | [45] | [47] | [49] | [50] | [51] | [52] | [54] | [57] | [58] | [59]
2.39 µM: [53]
> 7.85 µM: [55]
> 2.62 µM: [48]
0.281 µM: [29]

CCOC(CBr)OC1C(=O)OCC1(C)C (centres undefined)
> 100 µM: [1] | [2] | [3] | [4] | [5] | [6] | [7] | [8] | [9] | [10] | [11] | [12] | [13] | [14] | [15] | [16] | [17] | [18] | [19] | [20] | [21] | [22] | [24] | [25] | [26] | [27] | [28] | [30] | [31] | [32] | [33] | [34] | [35] | [36] | [37] | [38] | [39] | [40] | [41] | [42] | [43] | [44] | [45] | [46] | [47] | [48] | [49] | [50] | [51] | [52] | [53] | [54] | [55] | [56] | [57] | [58] | [59]

COc1cc2ncnc(NS(=O)(=O)c3cc4ccccc4s3)c2cc1OC
> 100 µM: [2] | [3] | [4] | [5] | [6] | [7] | [8] | [9] | [10] | [11] | [12] | [13] | [14] | [15] | [16] | [17] | [18] | [19] | [20] | [22] | [23] | [24] | [25] | [26] | [27] | [28] | [29] | [30] | [31] | [32] | [33] | [34] | [35] | [36] | [37] | [38] | [39] | [40] | [41] | [42] | [43] | [44] | [45] | [46] | [47] | [48] | [49] | [50] | [51] | [52] | [53] | [54] | [55] | [56] | [57] | [58] | [59]
